From US20080254023A1, “Treating Gliosis, Glial Scarring, Inflammation or Inhibition of Axonal Growth in the Nervous System by Modulating Eph Receptor” (THE UNIVERSITY OF QUEENSLAND, priority 2004, published 2008)

B1: IFNγ: Interferon-γ, inflammatory cytokine, inducer of astrocytic gliosis (protein, UniProt P01579 24-161, looked up)
Interferon gamma: QDPYVKEAENLKKYFNAGHSDVADNGTLFLGILKNWKEESDRKIMQSQIVSFYFKLFKNFKDDQSIQKSVETIKEDMNVKFFNSNKKKRDDFEKLTNYSVTDLNVQRKAIHELIQVMAELSPAAKTGKRKRSQMLFRG

What was measured:
Assay type in all cases: cell-based, mice
EphA4 [1] = assay: EphA4 expression in cultured astrocytes (Western analysis); details: 72 hrs, compared with untreated controls
Protocol: (§1) For biochemical analysis of astrocytes, factors as indicated were added to 80% confluent monolayers in 10 cm plates (Falcon, USA) for the times indicated. EphrinA5-Fc (available from the inventors) was pre-complexed as above.
(§2) Cells were lysed and a sample kept aside for analysis of total protein levels. The remainder of the lysate was used for immunoprecipitation in EphA4 or Rho activation assays. EphA4 activation was determined by immunoprecipitation of phosphorylated proteins using anti-phosphotyrosine (Cell Signaling), followed by Western transfer and detection of activated or total EphA4 using a rabbit anti-EphA4 antibody (kindly provided by Dr. D. Wilkinson, National Institute for Medical Research, London). Rho activation assays were performed using the Rhotekin RBD assay, according to the manufacturer's instructions (Upstate, USA). Total EphA4 and β-actin expression levels were determined in non-lesioned and 7 d post-lesioned spinal cords by Western analysis using rabbit anti-EphA4 antibody as above and mouse anti-β-actin antibody (Sigma). Densitometry was performed on the autoradiographs using NIH Image software to determine relative levels of the EphA4 bands and normalized to β-actin levels.

Rho = Rho activation in cultured astrocytes (Rhotekin RBD assay)
Protocol: as §1, §2

astrocytes = assay: In vitro astrocyte proliferation assay (MTT); details: up to 72 hrs, LIF 1000 U/ml, IFN-γ 100 U/ml; for proliferation of WT astrocytes: wildtype astrocytes
Protocol: The [3-(4,5-dimethylthiazol-2-yl)-2,5-diphenyl]tetrazolium bromide (MTT) assay, which determines mitochondrial activity in living cells, is commonly used as a proliferation assay (Mosmann, J Immunol Methods 65:55-63, 1983). Living cells transform the tetrazolium ring into dark blue formazan crystals, which can be quantified by reading the optical density (O.D.); an increase in O.D. correlates with an increase in cell number over time. Wildtype and EphA4−/− astrocytes were plated on 96 well plates (Falcon) at 3×10^3 cells/well in DMEM supplemented with 10% FCS in the presence or absence of either LIF (1000 U/ml) or IFN-γ (100 U/ml). The MTT assay was performed at 2, 24, 48 and 72 hours after plating. MTT (0.25 mg/ml) was incubated with the cells at each timepoint for 2 hours at 37° C., the cells were then lysed with an equal volume of acidic isopropanol (0.04M HCL in absolute isopropanol) and the O.D. of the formazan product was measured at 550-650 nm.

EphA4 [2] = target: T1, EphA4 (Mus musculus, UniProt Q03137); assay: EphA4 phosphorylation in cultured astrocytes (anti-phosphotyrosine immunoprecipitation, Western)
T1 construct: chamber slides (Falcon, USA) containing wildtype or EphA4−/− astrocyte monolayers; endogenous in cells; host or cells: primary purified astrocyte cultures from wildtype mice
T1 sequence (Q03137 20-986): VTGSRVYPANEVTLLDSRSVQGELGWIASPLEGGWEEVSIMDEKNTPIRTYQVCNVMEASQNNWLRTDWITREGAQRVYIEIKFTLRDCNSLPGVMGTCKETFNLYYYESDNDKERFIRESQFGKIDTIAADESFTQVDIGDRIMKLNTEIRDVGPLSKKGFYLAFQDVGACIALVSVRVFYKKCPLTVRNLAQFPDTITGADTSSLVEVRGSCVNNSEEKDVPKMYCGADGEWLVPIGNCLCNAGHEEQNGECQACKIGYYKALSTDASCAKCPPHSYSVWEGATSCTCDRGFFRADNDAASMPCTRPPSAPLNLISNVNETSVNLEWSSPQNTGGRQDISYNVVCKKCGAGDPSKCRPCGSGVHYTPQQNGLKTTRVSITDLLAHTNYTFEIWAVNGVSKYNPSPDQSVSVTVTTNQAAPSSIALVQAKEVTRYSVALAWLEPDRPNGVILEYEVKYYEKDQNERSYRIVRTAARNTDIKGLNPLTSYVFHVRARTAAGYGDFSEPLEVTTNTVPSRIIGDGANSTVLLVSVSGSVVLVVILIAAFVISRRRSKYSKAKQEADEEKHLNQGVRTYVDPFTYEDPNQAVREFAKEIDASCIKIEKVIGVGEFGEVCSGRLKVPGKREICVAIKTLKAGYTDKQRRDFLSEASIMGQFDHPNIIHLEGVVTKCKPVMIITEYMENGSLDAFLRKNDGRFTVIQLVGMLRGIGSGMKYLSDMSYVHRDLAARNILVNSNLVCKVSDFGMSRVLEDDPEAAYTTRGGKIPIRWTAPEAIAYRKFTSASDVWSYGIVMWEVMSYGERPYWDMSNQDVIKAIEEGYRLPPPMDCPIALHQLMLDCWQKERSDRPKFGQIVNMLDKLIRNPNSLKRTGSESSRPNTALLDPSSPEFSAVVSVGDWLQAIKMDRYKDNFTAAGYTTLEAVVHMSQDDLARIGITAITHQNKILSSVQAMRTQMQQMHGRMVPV
Protocol: as §1, §2

upregulation of EphA4 phosphorylation (EphA4 [2]) | Molecule | upregulation of EphA4 expression on astrocytes (EphA4 [1]) | Rho activation (RhoGTP) in EphA4−/− astrocytes (Rho; EphA4−/− astrocytes in culture) | Rho activation (RhoGTP) in wildtype astrocytes (Rho; wildtype astrocytes in culture) | proliferation response of EphA4−/− astrocytes (astrocytes) | proliferation of WT astrocytes (astrocytes)
 | IFNγ: Interferon-γ, inflammatory cytokine, inducer of astrocytic gliosis | 56% | not | activated Rho | markedly decreased | increased proliferation
 | TNFα | no effect |  |  |  | 
2 fold | LIF: Leukemia inhibitory factor, inflammatory cytokine | 69% |  |  | markedly decreased | increased proliferation
2 fold | B1 |  |  |  |  | 
